{"source": "PubChem BioAssay AID1259407", "about": "(Chemical Carcinogenesis Research Information System (CCRIS), 2018)", "tested_on": "CCRIS mutagenicity, Ames/micronucleus/aberration tests", "assay": "CCRIS mutagenicity studies", "key": {"[1]": {"settings": "Test System: AMES SALMONELLA TYPHIMURIUM, Strain/Indicator: TA98, Metabolic Activation: NONE, Method: PREINCUBATION"}, "[2]": {"settings": "Test System: AMES SALMONELLA TYPHIMURIUM, Strain/Indicator: TA98, Metabolic Activation: NONE, Method: STANDARD PLATE"}, "[3]": {"settings": "Test System: AMES SALMONELLA TYPHIMURIUM, Strain/Indicator: TA100, Metabolic Activation: NONE, Method: STANDARD PLATE"}, "[4]": {"settings": "Test System: AMES SALMONELLA TYPHIMURIUM, Strain/Indicator: TA98, Metabolic Activation: RAT, LIVER, S-9, AROCLOR 1254, Method: STANDARD PLATE"}, "[5]": {"settings": "Test System: AMES SALMONELLA TYPHIMURIUM, Strain/Indicator: TA100, Metabolic Activation: RAT, LIVER, S-9, AROCLOR 1254, Method: STANDARD PLATE"}}, "note": "The source made the active and inactive calls. No rule for the calls is given here."}
{"smiles": "Cl[C@@H]1C2(Cl)C3C4[C@@H]5O[C@@H]5[C@H]5C3[C@@](Cl)(C2(Cl)Cl)[C@]1(Cl)[C@@H]45", "note": "(stereo partly specified)", "values": [{"measurement": "mutagenic call", "setting": "Test System: AMES SALMONELLA TYPHIMURIUM, Strain/Indicator: TA97, Metabolic Activation: HAMSTER, LIVER, S-9, AROCLOR 1254 (10%), Method: PREINCUBATION", "value": "inactive; negative"}, {"measurement": "mutagenic call", "setting": "Test System: AMES SALMONELLA TYPHIMURIUM, Strain/Indicator: TA97, Metabolic Activation: HAMSTER, LIVER, S-9, AROCLOR 1254 (30%), Method: PREINCUBATION", "value": "active; positive"}, {"measurement": "mutagenic call", "setting": "Test System: AMES SALMONELLA TYPHIMURIUM, Strain/Indicator: TA97, Metabolic Activation: NONE, Method: PREINCUBATION", "value": "inactive; negative"}, {"measurement": "mutagenic call", "setting": "Test System: AMES SALMONELLA TYPHIMURIUM, Strain/Indicator: TA97, Metabolic Activation: RAT, LIVER, S-9, AROCLOR 1254 (10 OR 30%), Method: PREINCUBATION", "value": "inactive; negative"}, {"measurement": "mutagenic call", "setting": "Test System: AMES SALMONELLA TYPHIMURIUM, Strain/Indicator: TA98, Metabolic Activation: HAMSTER, LIVER, S-9, AROCLOR 1254 (10 OR 30%), Method: PREINCUBATION", "value": "inactive; negative"}, {"measurement": "mutagenic call", "setting": "[1]", "value": "inactive; negative"}, {"measurement": "mutagenic call", "setting": "Test System: AMES SALMONELLA TYPHIMURIUM, Strain/Indicator: TA98, Metabolic Activation: RAT, LIVER, S-9, AROCLOR 1254 (10 OR 30%), Method: PREINCUBATION", "value": "inactive; negative"}, {"measurement": "mutagenic call", "setting": "Test System: AMES SALMONELLA TYPHIMURIUM, Strain/Indicator: TA100, Metabolic Activation: HAMSTER, LIVER, S-9, AROCLOR 1254 (10 OR 30%), Method: PREINCUBATION", "value": "inactive; negative"}, {"measurement": "mutagenic call", "setting": "Test System: AMES SALMONELLA TYPHIMURIUM, Strain/Indicator: TA100, Metabolic Activation: NONE, Method: PREINCUBATION", "value": "inactive; negative"}, {"measurement": "mutagenic call", "setting": "Test System: AMES SALMONELLA TYPHIMURIUM, Strain/Indicator: TA100, Metabolic Activation: RAT, LIVER, S-9, AROCLOR 1254 (10 OR 30%), Method: PREINCUBATION", "value": "inactive; negative"}, {"measurement": "mutagenic call", "setting": "Test System: AMES SALMONELLA TYPHIMURIUM, Strain/Indicator: TA1535, Metabolic Activation: HAMSTER, LIVER, S-9, AROCLOR 1254 (10 OR 30%), Method: PREINCUBATION", "value": "inactive; negative"}, {"measurement": "mutagenic call", "setting": "Test System: AMES SALMONELLA TYPHIMURIUM, Strain/Indicator: TA1535, Metabolic Activation: NONE, Method: PREINCUBATION", "value": "inactive; negative"}, {"measurement": "mutagenic call", "setting": "Test System: AMES SALMONELLA TYPHIMURIUM, Strain/Indicator: TA1535, Metabolic Activation: RAT, LIVER, S-9, AROCLOR 1254 (10 OR 30%), Method: PREINCUBATION", "value": "inactive; negative"}]}
{"smiles": "O=[N+]([O-])c1ccc(/C=C/c2cccc([N+](=O)[O-])c2)cc1", "values": [{"measurement": "mutagenic call", "setting": "Test System: AMES SALMONELLA TYPHIMURIUM, Strain/Indicator: TA98 (NR), Metabolic Activation: NONE, Method: STANDARD PLATE", "value": "active; positive"}, {"measurement": "mutagenic call", "setting": "Test System: AMES SALMONELLA TYPHIMURIUM, Strain/Indicator: TA98 (NR), Metabolic Activation: S-9, Method: STANDARD PLATE", "value": "inactive; negative"}, {"measurement": "mutagenic call", "setting": "[2]", "value": "active; positive"}, {"measurement": "mutagenic call", "setting": "Test System: AMES SALMONELLA TYPHIMURIUM, Strain/Indicator: TA98, Metabolic Activation: S-9, Method: STANDARD PLATE", "value": "active; positive"}, {"measurement": "mutagenic call", "setting": "Test System: AMES SALMONELLA TYPHIMURIUM, Strain/Indicator: TA100 (NR), Metabolic Activation: NONE, Method: STANDARD PLATE", "value": "inactive; negative"}, {"measurement": "mutagenic call", "setting": "Test System: AMES SALMONELLA TYPHIMURIUM, Strain/Indicator: TA100 (NR), Metabolic Activation: S-9, Method: STANDARD PLATE", "value": "inactive; negative"}, {"measurement": "mutagenic call", "setting": "[3]", "value": "active; positive"}, {"measurement": "mutagenic call", "setting": "Test System: AMES SALMONELLA TYPHIMURIUM, Strain/Indicator: TA100, Metabolic Activation: S-9, Method: STANDARD PLATE", "value": "active; positive"}]}
{"smiles": "CC(=O)Nc1ccc(C)c(N)c1", "values": [{"measurement": "mutagenic call", "setting": "[1]", "value": "inactive; negative"}, {"measurement": "mutagenic call", "setting": "Test System: AMES SALMONELLA TYPHIMURIUM, Strain/Indicator: TA98, Metabolic Activation: RAT, LIVER, S-9, PHENOBARBITAL AND 5,6-BENZOFLAVONE, Method: PREINCUBATION", "value": "active; positive"}]}
{"smiles": "O=C(O)c1occ(-c2ccccc2)c1-c1ccccc1", "values": [{"measurement": "mutagenic call", "setting": "[2]", "value": "inactive; negative"}, {"measurement": "mutagenic call", "setting": "[3]", "value": "inactive; negative"}]}
{"smiles": "Fc1cc(F)c2ncccc2c1", "values": [{"measurement": "mutagenic call", "setting": "Test System: AMES SALMONELLA TYPHIMURIUM, Strain/Indicator: TA100, Metabolic Activation: RAT LIVER S-9, PHENOBARBITAL AND 5,6-BENZOFLAVONE, Method: PREINCUBATION", "value": "active; positive"}]}
{"smiles": "c1ccc2c(c1)-c1c(c3ccccc3c3ccccc13)C1NC21", "note": "(stereo unspecified)", "values": [{"measurement": "mutagenic call", "setting": "Test System: AMES SALMONELLA TYPHIMURIUM, Strain/Indicator: TA98, Metabolic Activation: NONE, Method: PREINCUBATION (KCL-CONTAINING MEDIUM)", "value": "active; positive"}, {"measurement": "mutagenic call", "setting": "Test System: AMES SALMONELLA TYPHIMURIUM, Strain/Indicator: TA98, Metabolic Activation: NONE, Method: PREINCUBATION (KCL-FREE MEDIUM)", "value": "active; positive"}, {"measurement": "mutagenic call", "setting": "Test System: AMES SALMONELLA TYPHIMURIUM, Strain/Indicator: TA100, Metabolic Activation: NONE, Method: PREINCUBATION (KCL-CONTAINING OR KCL-FREE MEDIA)", "value": "active; positive"}]}
{"smiles": "Nc1c(N=Nc2ccc(S(=O)(=O)CCOS(=O)(=O)O)cc2)c(S(=O)(=O)O)cc2cc(S(=O)(=O)O)c(N=Nc3ccc(S(=O)(=O)CCOS(=O)(=O)O)cc3)c(O)c12", "values": [{"measurement": "mutagenic call", "setting": "Test System: Ames Salmonella typhimurium, Strain/Indicator: TA98, Metabolic Activation: None, Method: Preincubation", "value": "inactive; negative"}, {"measurement": "mutagenic call", "setting": "Test System: Ames Salmonella typhimurium, Strain/Indicator: TA98, Metabolic Activation: Rat, Liver, S-9, Aroclor 1254, Method: Preincubation", "value": "inactive; negative"}, {"measurement": "mutagenic call", "setting": "Test System: Ames Salmonella typhimurium, Strain/Indicator: TA100, Metabolic Activation: None, Method: Preincubation", "value": "inactive; negative"}, {"measurement": "mutagenic call", "setting": "Test System: Ames Salmonella typhimurium, Strain/Indicator: TA100, Metabolic Activation: Rat, Liver, S-9, Aroclor 1254, Method: Preincubation", "value": "inactive; negative"}, {"measurement": "mutagenic call", "setting": "Test System: Ames Salmonella typhimurium, Strain/Indicator: TA102, Metabolic Activation: None, Method: Preincubation", "value": "inactive; negative"}, {"measurement": "mutagenic call", "setting": "Test System: Ames Salmonella typhimurium, Strain/Indicator: TA102, Metabolic Activation: Rat, Liver, S-9, Aroclor 1254, Method: Preincubation", "value": "inactive; negative"}, {"measurement": "mutagenic call", "setting": "Test System: Ames Salmonella typhimurium, Strain/Indicator: TA1535, Metabolic Activation: None, Method: Preincubation", "value": "inactive; negative"}, {"measurement": "mutagenic call", "setting": "Test System: Ames Salmonella typhimurium, Strain/Indicator: TA1535, Metabolic Activation: Rat, Liver, S-9, Aroclor 1254, Method: Preincubation", "value": "inactive; negative"}]}
{"smiles": "Cc1ccc(NC(=O)CBr)cc1", "values": [{"measurement": "mutagenic call", "setting": "Test System: AMES SALMONELLA TYPHIMURIUM, Strain/Indicator: TA100, Metabolic Activation: MOUSE, LIVER, S-9, AROCLOR 1254, Method: STANDARD PLATE", "value": "inactive; negative"}, {"measurement": "mutagenic call", "setting": "[3]", "value": "inactive; negative"}]}
{"smiles": "O=C(/C=C/c1ccc(O)cc1)c1ccccc1", "values": [{"measurement": "mutagenic call", "setting": "[2]", "value": "inactive; negative"}, {"measurement": "mutagenic call", "setting": "[4]", "value": "inactive; negative"}, {"measurement": "mutagenic call", "setting": "[3]", "value": "inactive; negative"}, {"measurement": "mutagenic call", "setting": "[5]", "value": "inactive; negative"}]}
{"smiles": "Clc1ccc(Cl)nc1", "values": [{"measurement": "mutagenic call", "setting": "Test System: AMES SALMONELLA TYPHIMURIUM, Strain/Indicator: TA97, Metabolic Activation: NONE, Method: STANDARD PLATE", "value": "inactive; negative"}, {"measurement": "mutagenic call", "setting": "Test System: AMES SALMONELLA TYPHIMURIUM, Strain/Indicator: TA97, Metabolic Activation: RAT, LIVER, S-9, AROCLOR 1254, Method: STANDARD PLATE", "value": "inactive; negative"}, {"measurement": "mutagenic call", "setting": "[2]", "value": "inactive; negative"}, {"measurement": "mutagenic call", "setting": "[4]", "value": "inactive; negative"}, {"measurement": "mutagenic call", "setting": "[3]", "value": "inactive; negative"}, {"measurement": "mutagenic call", "setting": "[5]", "value": "inactive; negative"}, {"measurement": "mutagenic call", "setting": "Test System: AMES SALMONELLA TYPHIMURIUM, Strain/Indicator: TA102, Metabolic Activation: NONE, Method: STANDARD PLATE", "value": "inactive; negative"}, {"measurement": "mutagenic call", "setting": "Test System: AMES SALMONELLA TYPHIMURIUM, Strain/Indicator: TA102, Metabolic Activation: RAT, LIVER, S-9, AROCLOR 1254, Method: STANDARD PLATE", "value": "inactive; negative"}]}
